Source: PubChem BioAssay AID248 (DTP/NCI, 2004)
Inconclusive results and toxic doses are left out.

Tested on: L1210 leukemia ip in BDF1 mice, survival T/C
Test: NCI In Vivo Anticancer Drug Screen. Data for tumor model L1210 Leukemia (intraperitoneal) in B6D2F1 (BDF1) mice
Details: endpoint: mean survival time, higher = longer survival
How it was run: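 Survival endpoint. Drug-treated group vs vehicle group, expressed as T divided by C. Tumor passaged by transplantation.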

[1] = dose: 100.0 mg/kg/injection, schedule: Q01DX001 (ip), vehicle: carboxymethylcellulose (CMC)
[2] = dose: 400.0 mg/kg/injection, schedule: Q01DX001 (ip), vehicle: carboxymethylcellulose (CMC)
[3] = dose: 100.0 mg/kg/injection, schedule: Q04DX003 (ip), vehicle: Klucel (hydroxypropylcellulose) (HPC)
[4] = dose: 200.0 mg/kg/injection, schedule: Q04DX003 (ip), vehicle: Klucel (hydroxypropylcellulose) (HPC)
[5] = dose: 400.0 mg/kg/injection, schedule: Q04DX003 (ip), vehicle: Klucel (hydroxypropylcellulose) (HPC)
[6] = dose: 200.0 mg/kg/injection, schedule: Q01DX001 (ip), vehicle: carboxymethylcellulose (CMC)
[7] = dose: 100.0 mg/kg/injection, schedule: Q01DX001 (ip), vehicle: saline
[8] = dose: 200.0 mg/kg/injection, schedule: Q01DX001 (ip), vehicle: saline
[9] = dose: 400.0 mg/kg/injection, schedule: Q01DX001 (ip), vehicle: saline
[10] = dose: 100.0 mg/kg/injection, schedule: Q04DX003 (ip), vehicle: saline with Tween-80
[11] = dose: 200.0 mg/kg/injection, schedule: Q01DX009 (ip), vehicle: saline
[12] = dose: 200.0 mg/kg/injection, schedule: Q04DX003 (ip), vehicle: saline with Tween-80
[13] = dose: 400.0 mg/kg/injection, schedule: Q01DX009 (ip), vehicle: saline
[14] = dose: 400.0 mg/kg/injection, schedule: Q04DX003 (ip), vehicle: saline with Tween-80
[15] = dose: 100.0 mg/kg/injection, schedule: Q01DX009 (ip), vehicle: Klucel (hydroxypropylcellulose) (HPC)
[16] = dose: 200.0 mg/kg/injection, schedule: Q01DX009 (ip), vehicle: Klucel (hydroxypropylcellulose) (HPC)
[17] = dose: 400.0 mg/kg/injection, schedule: Q01DX009 (ip), vehicle: Klucel (hydroxypropylcellulose) (HPC)
[18] = dose: 100.0 mg/kg/injection, schedule: Q01DX001 (ip), vehicle: saline with Tween-80
[19] = dose: 200.0 mg/kg/injection, schedule: Q01DX001 (ip), vehicle: saline with Tween-80

COc1cc(N(CCCl)CCCl)c(OC)cc1/C=N/NC(=O)CC(N)C(=O)O (stereo not given)
T/C (dose: 12.37 mg/kg/injection, schedule: Q01DX009 (ip), vehicle: saline): 107 % of control | T/C (dose: 12.5 mg/kg/injection, schedule: Q01DX009 (ip), vehicle: saline with Tween-80): 113 % of control | T/C (dose: 18.75 mg/kg/injection, schedule: Q01DX009 (ip), vehicle: saline): 112 % of control | T/C (dose: 25.0 mg/kg/injection, schedule: Q01DX009 (ip), vehicle: saline with Tween-80): 119 % of control | T/C (dose: 28.12 mg/kg/injection, schedule: Q01DX009 (ip), vehicle: saline): 112 % of control | T/C (dose: 37.5 mg/kg/injection, schedule: Q01DX009 (ip), vehicle: saline): 88 % of control | T/C (dose: 37.5 mg/kg/injection, schedule: Q04DX003 (ip), vehicle: acetone): 111 % of control | T/C (dose: 50.0 mg/kg/injection, schedule: Q01DX009 (ip), vehicle: saline with Tween-80): 119 % of control | T/C (dose: 75.0 mg/kg/injection, schedule: Q01DX001 (ip), vehicle: saline): 123 % of control | T/C (dose: 75.0 mg/kg/injection, schedule: Q01DX009 (ip), vehicle: saline): 88 % of control | T/C (dose: 75.0 mg/kg/injection, schedule: Q04DX003 (ip), vehicle: acetone): 105 % of control | T/C [1]: 115 % of control | T/C (dose: 100.0 mg/kg/injection, schedule: Q01DX009 (ip), vehicle: other): 120 % of control | T/C (dose: 150.0 mg/kg/injection, schedule: Q01DX001 (ip), vehicle: saline): 123 % of control | T/C (dose: 150.0 mg/kg/injection, schedule: Q04DX003 (ip), vehicle: acetone): 113 % of control | T/C (dose: 177.0 mg/kg/injection, schedule: Q01DX001 (ip), vehicle: carboxymethylcellulose (CMC)): 120 % of control | T/C (dose: 266.0 mg/kg/injection, schedule: Q01DX001 (ip), vehicle: carboxymethylcellulose (CMC)): 124 % of control | T/C [2]: 118 % of control | T/C (dose: 600.0 mg/kg/injection, schedule: Q01DX001 (ip), vehicle: carboxymethylcellulose (CMC)): 153 % of control

COC(=O)C1(C(=O)OC)C=CCCC1=O
T/C [3]: 108 % of control | T/C [4]: 107 % of control | T/C [5]: 96 % of control

CCOC(=O)C1(C(=O)OCC)CCC(O)N1C(=O)Cc1ccccc1[N+](=O)[O-] (stereo not given)
T/C [3]: 100 % of control | T/C [4]: 103 % of control | T/C [5]: 99 % of control

O=C(NCc1ccccc1)C(Cc1ccccc1)Cc1ccccc1
T/C [1]: 93 % of control | T/C [6]: 95 % of control | T/C [2]: 98 % of control

Oc1ccccc1N=Cc1ccccc1
T/C [7]: 94 % of control | T/C [8]: 100 % of control | T/C [9]: 103 % of control

Cc1ccc(C)c(C(=O)c2ccccc2C(=O)O)c1
T/C (dose: 10.0 mg/kg/injection, schedule: Q01DX009 (ip), vehicle: saline): 101 % of control | T/C (dose: 100.0 mg/kg/injection, schedule: Q01DX009 (ip), vehicle: saline sonified): 98 % of control | T/C [10]: 90 % of control | T/C (dose: 200.0 mg/kg/injection, schedule: Q01DX009 (ip), vehicle: saline sonified): 94 % of control | T/C [11]: 103 % of control | T/C [12]: 94 % of control | T/C (dose: 400.0 mg/kg/injection, schedule: Q01DX009 (ip), vehicle: saline sonified): 105 % of control | T/C [13]: 98 % of control | T/C [14]: 90 % of control

CC1C(C)(C)C12C=CC=C2 (stereo not given)
T/C [7]: 102 % of control | T/C [8]: 96 % of control | T/C [9]: 96 % of control

CC(=O)Oc1ccc(CCN=C(c2ccccc2)c2ccccc2)cc1OC(C)=O
T/C [7]: 107 % of control | T/C [8]: 104 % of control | T/C [9]: 100 % of control

CCOc1ccc(/C=N\N=C\c2ccc(OCC)cc2)cc1
T/C [15]: 89 % of control | T/C [3]: 93 % of control | T/C [5]: 97 % of control

CC(C)(CC(=O)O)c1ccccc1
T/C [7]: 96 % of control | T/C (dose: 100.0 mg/kg/injection, schedule: Q01DX009 (ip), vehicle: saline): 104 % of control | T/C (dose: 100.0 mg/kg/injection, schedule: Q04DX003 (ip), vehicle: saline): 100 % of control | T/C [8]: 106 % of control | T/C [11]: 101 % of control | T/C (dose: 200.0 mg/kg/injection, schedule: Q04DX003 (ip), vehicle: saline): 104 % of control | T/C [9]: 96 % of control | T/C [13]: 96 % of control | T/C (dose: 400.0 mg/kg/injection, schedule: Q04DX003 (ip), vehicle: saline): 91 % of control

OCCN(Cc1ccccc1)Cc1ccccc1
T/C [10]: 101 % of control | T/C [12]: 95 % of control

CCCCCCCCCCCCCCCCOCCCCCCCCCCCCCCCC
T/C [15]: 96 % of control | T/C (dose: 100.0 mg/kg/injection, schedule: Q04DX003 (ip), vehicle: other): 103 % of control | T/C [16]: 100 % of control | T/C (dose: 200.0 mg/kg/injection, schedule: Q04DX003 (ip), vehicle: other): 88 % of control | T/C [17]: 91 % of control | T/C (dose: 400.0 mg/kg/injection, schedule: Q04DX003 (ip), vehicle: other): 95 % of control

CC(=O)OC(C)C(C)C(=O)OCC12C3CC4(C)C(=CCC5C6(C)CCC(OC7OC(C(=O)O)C(OC8OC(CO)C(O)C(O)C8O)C(O)C7OC7OCC(O)C(O)C7O)C(C)(CO)C6CCC54C)C1CC(C)(C)C(O3)C2O (stereo not given)
T/C (dose: 5.0 mg/kg/injection, schedule: Q01DX001 (sc), vehicle: steriod suspending solution): 105 % of control | T/C (dose: 50.0 mg/kg/injection, schedule: Q01DX001 (sc), vehicle: steriod suspending solution): 112 % of control

C=CCOC(=O)CCl
T/C (dose: 55.0 mg/kg/injection, schedule: Q01DX Z (ip), vehicle: methylcellulose (MC)): 87 % of control | T/C [18]: 92 % of control | T/C [19]: 98 % of control

C(=N/N=C/c1cccnc1)/c1cccnc1
T/C (dose: 100.0 mg/kg/injection, schedule: Q01DX001 (ip), vehicle: other): 104 % of control | T/C (dose: 200.0 mg/kg/injection, schedule: Q01DX001 (ip), vehicle: other): 110 % of control | T/C (dose: 400.0 mg/kg/injection, schedule: Q01DX001 (ip), vehicle: other): 110 % of control

C=CCc1ccc(OC(=O)Nc2ccc(S(=O)(=O)CC)cc2)c(OC)c1
T/C [1]: 90 % of control | T/C [6]: 93 % of control | T/C [2]: 93 % of control

O=c1oc2ccccc2cc1-c1ccc([N+](=O)[O-])cc1
T/C (dose: 100.0 mg/kg/injection, schedule: Q04DX002 (ip), vehicle: Klucel (hydroxypropylcellulose) (HPC)): 100 % of control | T/C (dose: 200.0 mg/kg/injection, schedule: Q04DX002 (ip), vehicle: Klucel (hydroxypropylcellulose) (HPC)): 89 % of control | T/C (dose: 400.0 mg/kg/injection, schedule: Q04DX002 (ip), vehicle: Klucel (hydroxypropylcellulose) (HPC)): 89 % of control

CNS(=O)(=O)c1ccccc1C(=O)c1ccccc1
T/C [7]: 100 % of control | T/C [8]: 97 % of control | T/C [9]: 103 % of control

Oc1ccccc1/C=N/Nc1ccc2ccccc2n1
T/C (dose: 75.0 mg/kg/injection, schedule: Q01DX001 (ip), vehicle: saline with Tween-80): 93 % of control | T/C (dose: 150.0 mg/kg/injection, schedule: Q01DX001 (ip), vehicle: saline with Tween-80): 90 % of control | T/C (dose: 300.0 mg/kg/injection, schedule: Q01DX001 (ip), vehicle: saline with Tween-80): 93 % of control

COc1ccc2c(c1C)C(=O)c1ccccc1C2
T/C [18]: 93 % of control | T/C [19]: 101 % of control | T/C (dose: 400.0 mg/kg/injection, schedule: Q01DX001 (ip), vehicle: saline with Tween-80): 90 % of control

O=C(Nc1ccc2c3c(ccc(NC(=O)c4ccccc4)c13)C=C2)c1ccccc1
T/C (dose: 50.0 mg/kg/injection, schedule: Q01DX001 (ip), vehicle: saline): 102 % of control | T/C [7]: 100 % of control | T/C [8]: 100 % of control | T/C [9]: 100 % of control

CCCCOc1ccc(OC(=O)Nc2cc(C)ccc2C)cc1
T/C [15]: 91 % of control | T/C [3]: 108 % of control | T/C [16]: 96 % of control | T/C [4]: 95 % of control | T/C [17]: 98 % of control | T/C [5]: 90 % of control

O=C(Nc1ccccc1O)c1ccccc1Cl
T/C [15]: 96 % of control | T/C [16]: 98 % of control | T/C [17]: 91 % of control

COC(OC)C1OC(C)(C)OC1C(OS(=O)(=O)c1ccc(C)cc1)C1COC(C)(C)O1 (stereo not given)
T/C [10]: 97 % of control | T/C [12]: 91 % of control | T/C [14]: 89 % of control
